The test system of one experiment is transglutaminase 1. Kind of experiment: Gene expression test using normal human epidermal keratinocytes (RT-PCR), transglutaminase 1. It counts as cell-based. As to conditions: 48 hours, relative value to control. How it is done:
(§1) Normal human epidermal keratinocytes (Kurabo Industries Ltd.) were cultured with HuMedia KG2 (Kurabo Industries Ltd.) at 37° C. and 5% CO2 under saturated vapor. Cells that have become confluent were seeded in a 6-well plate with a seeding density of 3.0×10^5 (cells/well).
(§2) For each evaluation sample, each D-amino acid adjusted in the culture medium so as to be 100 μM or 500 μM was used. On the next day of seeding, each evaluation sample was adjusted to be 100 μM or 500 μM, and each well culture medium was exchanged. Culturing was performed for 48 hours, RNA was extracted from the cells using RN easy mini kit (Qiagen), which was synthesized into cDNA using High-Capacity cDNA Reverse Transcription Kit with RNase Inhibitor (Thermo Fisher). With this cDNA as a template, a sample added group and a control group were compared with each other by the RT-PCR method (7500 fast system (Thermo Fisher)) to evaluate gene expression amounts of filaggrin, involucrin, loricrin, keratin 10, and transglutaminase 1. In Table 4, FLG, IVL, K10, LOR, and TGM indicate filaggrin, involucrin, keratin 10, loricrin, and transglutaminase 1, respectively.

For a further experiment, the system named is loricrin. Kind of experiment: Gene expression test using normal human epidermal keratinocytes (RT-PCR), loricrin. It counts as cell-based. As to conditions: 48 hours, relative value to control. Here is the method: as §1, §2
Experiment [1] has as its system filaggrin, involucrin, loricrin, keratin 10, and transglutaminase 1. The experiment can be described thus: Gene expression test using normal human epidermal keratinocytes, text summary over the target genes. It counts as cell-based. As to conditions: 100 μM or 500 μM, summary of Table 4; for expression amounts of the respective target genes: all five target genes. How it is done:
as §1, §2

Another experiment deals with involucrin. Kind of experiment: Gene expression test using normal human epidermal keratinocytes (RT-PCR), involucrin. The settings on record: Keratinocyte, 48 hours, relative value to control, read-out: IVL (involucrin) gene expression amount. Type of experiment: cell-based. How it is done:
as §1, §2

The next experiment has as its system keratin 10. Kind of experiment: Gene expression test using normal human epidermal keratinocytes (RT-PCR), keratin 10. Type of experiment: cell-based. The settings on record: Keratinocyte, 48 hours, relative value to control, read-out: K10 (keratin 10) gene expression amount. Here is the method:
as §1, §2

The subject of another experiment is filaggrin. Kind of experiment: Gene expression test using normal human epidermal keratinocytes (RT-PCR), filaggrin. The settings on record: Keratinocyte, 48 hours, relative value to control, read-out: FLG (filaggrin) gene expression amount. Type of experiment: cell-based. How it is done:
as §1, §2

The conditions of experiment [2]: JP 2012-006870; determined only by the subjectivity of subjects; cited from earlier work.
For experiment [3] the following is noted: orally administered; cited filing; cited from earlier work.
The next experiment concerns laminin 332. The settings on record: reported in WO 2011/040082; cited from earlier work.
Experiment [4] relates to filaggrin, involucrin, transglutaminase 1, keratin 10, and loricrin. As to conditions: cited from earlier work.

Where a SMILES comes first, the peptide text is derived from it.

Turning to `NCCCC[C@@H](N)C(=O)O` [D-Lys, D-lysine], the “TGM (transglutaminase 1) gene expression amount” value (shortened to “TGM”) in the experiment with transglutaminase 1 (100 μM) turned out to be 1.12. Further, the “LOR (loricrin) gene expression amount” value in the experiment with loricrin (100 μM) is 2.02; in the experiment with loricrin (500 μM) it was 1.39. Also, in experiment [1], the “expression amounts of the respective target genes” value is “increases”. In addition, the figures for the fold induction at 100 µM with involucrin, with keratin 10 and with filaggrin were 1.27, 1.35 and 1.48, respectively. Further, the fold induction at 500 µM stood at 1.72 in the experiment on involucrin, 2.16 in the experiment on keratin 10 and 1.29 in the experiment with filaggrin. Moreover, the moisture retaining effect entry in experiment [2] is given as “expressed”.

As to `N[C@H](Cc1c[nH]c2ccccc12)C(=O)O` [D-Trp, D-tryptophan], the “TGM” value in the experiment with transglutaminase 1 (100 μM) amounted to 1.42; with transglutaminase 1 (500 μM), 1.50. In addition, the “LOR (loricrin) gene expression amount” value in the experiment with loricrin (100 μM) is on record as 1.71; with loricrin (500 μM), 3.45. Also, the “expression amounts of the respective target genes” value in experiment [1] was “increases”. Also, the fold induction at 100 µM in the experiment on involucrin was found to be 2.05; in the experiment with keratin 10, 2.44; in the experiment on filaggrin, 1.77. Moreover, the fold induction at 500 µM in the experiment on involucrin is 2.43; with keratin 10 it was 3.43; with filaggrin it was 3.3.

With `CC[C@H](C)[C@@H](N)C(=O)O` [D-allo-Ile, D-allo-isoleucine], the “TGM” value with transglutaminase 1 (500 μM) came to 1.27. The “LOR (loricrin) gene expression amount” value in the experiment on loricrin (100 μM) is recorded as 1.31. For the same compound, the “expression amounts of the respective target genes” value in experiment [1] is on record as “increases”. Also, the fold induction at 100 µM in the experiment with involucrin was found to be 1.18; in the experiment on keratin 10, 1.31; in the experiment on filaggrin it was 1.3. Besides, the figures for the fold induction at 500 µM in the experiment with involucrin, in the experiment with keratin 10 and in the experiment on filaggrin were 1.13, 1.41 and 1.21, respectively.

On to `NC(=O)C[C@@H](N)C(=O)O` [D-Asn, D-asparagine], for which, in the experiment with loricrin (500 μM), the “LOR (loricrin) gene expression amount” value came to 1.80. In addition, the “expression amounts of the respective target genes of filaggrin, involucrin, keratin 10, and loricrin” value in experiment [1] is reported as “increases”. The fold induction at 500 µM with involucrin is 1.34; in the experiment on keratin 10, 1.21; with filaggrin it was 1.55.

In the case of `N[C@H](CCC(=O)O)C(=O)O` [D-Glu, D-glutamic acid], in the experiment on transglutaminase 1 (500 μM), the “TGM” value was determined as 1.13. Also, the “LOR (loricrin) gene expression amount” value in the experiment on loricrin (500 μM) worked out at 2.07. In addition, the “expression amounts of the respective target genes” value in experiment [1] was “increases”. The fold induction at 500 µM in the experiment with involucrin stood at 1.34; in the experiment on keratin 10, 1.25; in the experiment with filaggrin, 1.69. The TEWL value result in experiment [3] is “reduces”.

On to `C[C@@H](N)C(=O)O` [D-Ala, D-alanine], for which the “TGM” value in the experiment on transglutaminase 1 (100 μM) is 1.20. The “expression amounts of the respective target genes of filaggrin, involucrin, keratin 10, and transglutaminase 1” value in experiment [1] is given as “increases”. In addition, the fold induction at 100 µM in the experiment with involucrin came to 1.28; in the experiment on keratin 10 it was 1.47; with filaggrin it was 1.23. The fold induction at 500 µM was 1.15 in the experiment on involucrin, 1.21 with keratin 10 and 1.18 with filaggrin. In the experiment on laminin 332, the “laminin 332 production promotion effect” value was “promote the production of laminin 332”.

As for `O=C(O)[C@H]1C[C@H](O)CN1` [D-hydroxyproline, reference compound], the “laminin 332 production promotion effect” value with laminin 332 is “promote the production of laminin 332”.

As to `NCC(=O)N1CCC[C@H]1C(=O)O` [glycylproline] (H-Gly-Pro-OH), in experiment [4] (applicant's assessment of the prior art), the “expression promotion action of moisture retention-related proteins such as filaggrin” value was “weak”. The “expression of filaggrin, involucrin, transglutaminase 1, keratin 10, and loricrin” value in experiment [4] (reported in WO 2014/175001 and JP 2012-232920) was “promoted”.

On to `NCCCC[C@H](N)C(=O)O` [L-lysine, reference compound], for which the moisture retaining effect result in experiment [2] is “expressed”.

Turning to `N[C@H](CC(=O)O)C(=O)O` [D-Asp, D-aspartic acid], the “TGM” value in the experiment with transglutaminase 1 (100 μM) is given as 1.13; in the experiment on transglutaminase 1 (500 μM), 1.20. For the same compound, the “LOR (loricrin) gene expression amount” value stood at 2.34 in the experiment with loricrin (100 μM) and 2.10 in the experiment on loricrin (500 μM). Also, the “expression amounts of the respective target genes” value in experiment [1] was “increases”. Further, the fold induction at 100 µM is 1.49 in the experiment on involucrin, 2.43 with keratin 10 and 1.35 in the experiment with filaggrin. Also, the fold induction at 500 µM came out at 1.42 in the experiment on involucrin, 2.1 with keratin 10 and 1.45 in the experiment with filaggrin. Further, in the experiment with laminin 332, the “laminin 332 production promotion effect” value is “not expressed”.

In the case of `N[C@H](Cc1ccccc1)C(=O)O` [D-Phe, D-phenylalanine], in the experiment on transglutaminase 1 (500 μM), the “TGM” value amounted to 1.26. The “LOR (loricrin) gene expression amount” value with loricrin (500 μM) is 1.78. Besides, the “expression amounts of the respective target genes” value in [1] was “increases”. For the same compound, the fold induction at 500 µM amounted to 1.32 with involucrin, 1.32 in the experiment on keratin 10 and 1.52 with filaggrin.
